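GI50: concentration for 50% inhibition of growth. At the TGI there is no net growth.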
Tests used:
Assay in all cases: inhibition of tumour cell growth, NCI panel, 384-well format; in the data active = GI50 below about 0.43 µM; inactive = the rest
OVCAR-5 ovarian = test system: OVCAR-5 ovarian
CAKI-1 renal = test system: CAKI-1 renal
M14 melanoma = test system: M14 melanoma
NCI-H226 lung = test system: NCI-H226 lung
SK-MEL-5 melanoma = test system: SK-MEL-5 melanoma
MALME-3M melanoma = test system: MALME-3M melanoma
SR leukemia = test system: SR leukemia
UACC-257 melanoma = test system: UACC-257 melanoma
NCI-H460 NSCLC = test system: NCI-H460 NSCLC
SNB-75 CNS = test system: SNB-75 CNS
A498 renal = test system: A498 renal
PC-3 prostate = test system: PC-3 prostate
RXF 393 renal = test system: RXF 393 renal
HOP-62 NSCLC = test system: HOP-62 NSCLC
OVCAR-3 ovarian = test system: OVCAR-3 ovarian
HT29 colon = test system: HT29 colon
A549 NSCLC = test system: A549 NSCLC
NCI-H322M lung = test system: NCI-H322M lung
KM12 colon = test system: KM12 colon
SK-OV-3 ovarian = test system: SK-OV-3 ovarian
EKVX NSCLC = test system: EKVX NSCLC
HOP-92 NSCLC = test system: HOP-92 NSCLC
HCT-116 colon = test system: HCT-116 colon
U251 glioblastoma = test system: U251 glioblastoma
NCI-H23 lung = test system: NCI-H23 lung
NCI/ADR-RES ovarian = test system: NCI/ADR-RES ovarian
K-562 leukemia = test system: K-562 leukemia
T-47D breast = test system: T-47D breast
UACC-62 melanoma = test system: UACC-62 melanoma

CCN1CCC(Oc2c(C#N)ncc3[nH]c4ncccc4c23)CC1
2.06 µM: TGI (HOP-62 NSCLC)
3.94 µM: TGI (NCI-H460 NSCLC)
> 90.2 µM: TGI (PC-3 prostate)
active: GI50 (M14 melanoma) 0.398 µM | GI50 (SR leukemia) < 0.0396 µM | GI50 (A498 renal) < 0.0456 µM | GI50 (RXF 393 renal) 0.0515 µM | GI50 (HOP-62 NSCLC) 0.311 µM | GI50 (HOP-92 NSCLC) 0.183 µM | GI50 (NCI-H23 lung) 0.423 µM | GI50 (NCI/ADR-RES ovarian) 0.13 µM | GI50 (K-562 leukemia) 0.253 µM
0.133 µM: TGI (A498 renal)
0.438 µM: TGI (NCI/ADR-RES ovarian)
> 57.8 µM: TGI (SNB-75 CNS)
inactive: GI50 (OVCAR-5 ovarian) 2.65 µM | GI50 (CAKI-1 renal) 3.4 µM | GI50 (NCI-H226 lung) > 23.5 µM | GI50 (SK-MEL-5 melanoma) 2.61 µM | GI50 (MALME-3M melanoma) 9.76 µM | GI50 (UACC-257 melanoma) > 100 µM | GI50 (NCI-H460 NSCLC) 0.997 µM | GI50 (SNB-75 CNS) 7.16 µM | GI50 (PC-3 prostate) 4.79 µM | GI50 (OVCAR-3 ovarian) 0.501 µM | GI50 (HT29 colon) 5.96 µM | GI50 (A549 NSCLC) > 100 µM | GI50 (NCI-H322M lung) 0.449 µM | GI50 (KM12 colon) 0.64 µM | GI50 (SK-OV-3 ovarian) 0.578 µM | GI50 (EKVX NSCLC) > 100 µM | GI50 (HCT-116 colon) 1.27 µM | GI50 (U251 glioblastoma) 1.59 µM | GI50 (T-47D breast) > 100 µM | GI50 (UACC-62 melanoma) 5.29 µM
2.85 µM: TGI (HCT-116 colon)
27.5 µM: TGI (UACC-62 melanoma)
> 24 µM: TGI (SK-OV-3 ovarian)
> 100 µM: TGI (OVCAR-5 ovarian) | TGI (CAKI-1 renal) | TGI (NCI-H226 lung) | TGI (SK-MEL-5 melanoma) | TGI (MALME-3M melanoma) | TGI (UACC-257 melanoma) | TGI (HT29 colon) | TGI (A549 NSCLC) | TGI (NCI-H322M lung) | TGI (EKVX NSCLC) | TGI (U251 glioblastoma) | TGI (T-47D breast)
0.694 µM: TGI (K-562 leukemia)
0.0928 µM: TGI (SR leukemia)
1.65 µM: TGI (M14 melanoma)
3.9 µM: TGI (KM12 colon)
1.18 µM: TGI (OVCAR-3 ovarian)
0.211 µM: TGI (RXF 393 renal)
18.4 µM: TGI (NCI-H23 lung)

Source: PubChem BioAssay (NCI)
